Results as given in a compilation of properties of binary mixtures (doi:10.1016/j.molliq.2017.02.011).

Assay: xn = mol fraction of the nth substance listed
Settings: 100 kPa

CCCC[n+]1ccn(C)c1C.F[B-](F)(F)F + O=C1CCCCC1
speed of sound (293.15 K, x1 = 0.0834): 1450.2 m/s
speed of sound (293.15 K, x1 = 0.1328): 1459.4 m/s
speed of sound (293.15 K, x1 = 0.1764): 1467.2 m/s
speed of sound (293.15 K, x1 = 0.2258): 1472.4 m/s
speed of sound (293.15 K, x1 = 0.2675): 1476.1 m/s
speed of sound (293.15 K, x1 = 0.3094): 1479.6 m/s
speed of sound (293.15 K, x1 = 0.3824): 1486 m/s
speed of sound (293.15 K, x1 = 0.4755): 1496 m/s
speed of sound (293.15 K, x1 = 0.5276): 1503.2 m/s
speed of sound (293.15 K, x1 = 0.5649): 1509.3 m/s
speed of sound (293.15 K, x1 = 0.6063): 1517 m/s
speed of sound (293.15 K, x1 = 0.6451): 1525.2 m/s
speed of sound (293.15 K, x1 = 0.7419): 1550.5 m/s
speed of sound (293.15 K, x1 = 0.8527): 1589.2 m/s
speed of sound (293.15 K, x1 = 0.9134): 1615.7 m/s
speed of sound (293.15 K, x1 = 1): 1659.7 m/s
speed of sound (298.15 K, x1 = 0.0834): 1433.6 m/s
speed of sound (298.15 K, x1 = 0.1328): 1442.1 m/s
speed of sound (298.15 K, x1 = 0.1764): 1448.8 m/s
speed of sound (298.15 K, x1 = 0.2675): 1458.1 m/s
speed of sound (298.15 K, x1 = 0.3824): 1468.5 m/s
speed of sound (298.15 K, x1 = 0.4755): 1478.6 m/s
speed of sound (298.15 K, x1 = 0.5276): 1486.2 m/s
speed of sound (298.15 K, x1 = 0.5649): 1492.5 m/s
speed of sound (298.15 K, x1 = 0.6063): 1500.4 m/s
speed of sound (298.15 K, x1 = 0.6451): 1508.9 m/s
speed of sound (298.15 K, x1 = 0.6947): 1521.1 m/s
speed of sound (298.15 K, x1 = 0.7419): 1534.8 m/s
speed of sound (298.15 K, x1 = 0.7994): 1553.9 m/s
speed of sound (298.15 K, x1 = 0.8527): 1574.3 m/s
speed of sound (298.15 K, x1 = 1): 1645.7 m/s
speed of sound (303.15 K, x1 = 0.0834): 1413.1 m/s
speed of sound (303.15 K, x1 = 0.1328): 1421.5 m/s
speed of sound (303.15 K, x1 = 0.1764): 1427.9 m/s
speed of sound (303.15 K, x1 = 0.2258): 1433.4 m/s
speed of sound (303.15 K, x1 = 0.2675): 1437.7 m/s
speed of sound (303.15 K, x1 = 0.3094): 1441.5 m/s
speed of sound (303.15 K, x1 = 0.4368): 1454.6 m/s
speed of sound (303.15 K, x1 = 0.5276): 1467.5 m/s
speed of sound (303.15 K, x1 = 0.5649): 1474.1 m/s
speed of sound (303.15 K, x1 = 0.6063): 1482.5 m/s
speed of sound (303.15 K, x1 = 0.6947): 1504.3 m/s
speed of sound (303.15 K, x1 = 0.7419): 1518.7 m/s
speed of sound (303.15 K, x1 = 0.8527): 1559.8 m/s
speed of sound (303.15 K, x1 = 0.9134): 1587.9 m/s
speed of sound (303.15 K, x1 = 1): 1632.5 m/s
speed of sound (308.15 K, x1 = 0.0834): 1392 m/s
speed of sound (308.15 K, x1 = 0.1764): 1406.3 m/s
speed of sound (308.15 K, x1 = 0.2258): 1412.3 m/s
speed of sound (308.15 K, x1 = 0.2675): 1417.1 m/s
speed of sound (308.15 K, x1 = 0.3094): 1420.8 m/s
speed of sound (308.15 K, x1 = 0.3824): 1428.9 m/s
speed of sound (308.15 K, x1 = 0.4368): 1434.8 m/s
speed of sound (308.15 K, x1 = 0.4755): 1440.1 m/s
speed of sound (308.15 K, x1 = 0.5276): 1448.5 m/s
speed of sound (308.15 K, x1 = 0.5649): 1455.6 m/s
speed of sound (308.15 K, x1 = 0.6063): 1464.2 m/s
speed of sound (308.15 K, x1 = 0.6451): 1473.4 m/s
speed of sound (308.15 K, x1 = 0.6947): 1487.3 m/s
speed of sound (308.15 K, x1 = 0.8527): 1544.8 m/s

O=C1CCCCC1 + CCCC[n+]1ccn(C)c1C.F[B-](F)(F)F
speed of sound (298.15 K, x2 = 0): 1414.5 m/s
speed of sound (308.15 K, x2 = 0): 1375.1 m/s
